pKi: −log10 of the molar value. Where a SMILES comes first, the peptide text is derived from it. [ ]: non-standard residue; d: D form. The star is where a group is joined. dProψ(CH2NH)PheNH2 = NC(=O)[C@H](Cc1ccccc1)NC[C@H]1CCCN1*; Hydrocinnamoyl = O=C(CCc1ccccc1)*; pGlu = O=C1CC[C@@H](C(=O)O)N1
Experiments:
[1] = molecular target: T1, Bombesin receptor subtype-3 (Homo sapiens, UniProt P32247)
T1 sequence (P32247 whole entry): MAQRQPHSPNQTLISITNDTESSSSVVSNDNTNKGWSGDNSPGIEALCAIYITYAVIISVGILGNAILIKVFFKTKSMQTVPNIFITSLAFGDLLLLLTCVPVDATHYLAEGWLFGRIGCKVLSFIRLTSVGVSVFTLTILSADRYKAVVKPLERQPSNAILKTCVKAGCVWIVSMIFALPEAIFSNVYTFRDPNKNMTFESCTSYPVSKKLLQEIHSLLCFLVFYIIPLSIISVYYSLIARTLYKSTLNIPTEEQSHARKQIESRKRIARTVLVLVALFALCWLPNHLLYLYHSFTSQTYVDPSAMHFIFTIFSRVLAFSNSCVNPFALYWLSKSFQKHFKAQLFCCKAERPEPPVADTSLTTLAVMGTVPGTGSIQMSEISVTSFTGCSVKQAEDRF

[2] = molecular target: Gastrin-releasing peptide receptor (Rattus norvegicus, UniProt P52500)
Gastrin-releasing peptide receptor, sequence (P52500 whole entry N28S): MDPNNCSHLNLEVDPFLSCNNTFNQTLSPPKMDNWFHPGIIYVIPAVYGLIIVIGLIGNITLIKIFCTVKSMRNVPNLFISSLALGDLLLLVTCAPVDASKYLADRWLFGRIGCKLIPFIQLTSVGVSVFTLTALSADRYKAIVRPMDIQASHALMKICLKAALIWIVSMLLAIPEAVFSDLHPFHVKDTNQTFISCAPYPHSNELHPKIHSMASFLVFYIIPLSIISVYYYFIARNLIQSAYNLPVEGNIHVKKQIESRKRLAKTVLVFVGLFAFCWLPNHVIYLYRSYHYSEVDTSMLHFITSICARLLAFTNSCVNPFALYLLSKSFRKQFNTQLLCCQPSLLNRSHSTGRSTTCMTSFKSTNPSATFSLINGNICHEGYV

Neuromedin-B receptor = molecular target: T2, Neuromedin-B receptor (Rattus norvegicus, UniProt P24053)
T2 sequence (P24053 whole entry): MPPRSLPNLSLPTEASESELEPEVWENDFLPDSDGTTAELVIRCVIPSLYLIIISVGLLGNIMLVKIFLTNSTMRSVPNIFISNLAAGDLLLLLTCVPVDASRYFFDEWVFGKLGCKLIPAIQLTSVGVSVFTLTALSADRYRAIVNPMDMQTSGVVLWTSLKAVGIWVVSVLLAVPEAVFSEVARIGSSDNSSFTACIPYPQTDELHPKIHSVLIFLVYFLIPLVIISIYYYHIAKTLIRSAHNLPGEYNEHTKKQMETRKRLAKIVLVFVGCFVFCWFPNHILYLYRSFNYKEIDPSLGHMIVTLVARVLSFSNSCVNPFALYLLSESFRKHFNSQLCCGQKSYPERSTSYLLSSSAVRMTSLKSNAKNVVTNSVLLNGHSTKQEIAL

CSCC[C@H](NC(=O)[C@H](Cc1ccccc1)NC(=O)[C@H](Cc1cnc[nH]1)NC(=O)CNC(=O)[C@@H](NC(=O)[C@H](C)NC(=O)[C@H](Cc1c[nH]c2ccccc12)NC(=O)[C@H](CCC(N)=O)NC(=O)[C@H](CC(N)=O)NC(=O)CNC(=O)[C@H](CC(C)C)NC(=O)[C@H](CCCN=C(N)N)NC(=O)[C@H](CCC(N)=O)NC(=O)[C@@H]1CCC(=O)N1)C(C)C)C(N)=O [Bombesin,Phe13]
pKi [1]: 5.18 | pKi [2]: 9.11 | pKi (Neuromedin-B receptor): 8.22

CSCC[C@H](NC(=O)[C@H](Cc1ccccc1)NC(=O)[C@H](Cc1c[nH]cn1)NC(=O)CNC(=O)[C@@H](NC(=O)[C@H](C)NC(=O)[C@H](Cc1c[nH]c2ccccc12)NC(=O)[C@H](CCC(N)=O)NC(=O)[C@@H]1CCCN1C(=O)[C@@H](NC(=O)[C@@H]1CCC(=O)N1)C(C)C)C(C)C)C(N)=O [CAS_29451-71-6] ([pGlu]VPQWAVGHFM-NH2)
pKi [1]: 5.16 | pKi [2]: 8.70 | pKi (Neuromedin-B receptor): 7.89

CSCC[C@H](NC(=O)[C@H](Cc1ccccc1)NC(=O)[C@H](Cc1cnc[nH]1)NC(=O)CNC(=O)[C@@H](NC(=O)[C@H](CCCN=C(N)N)NC(=O)[C@H](Cc1c[nH]c2ccccc12)NC(=O)[C@H](CCC(N)=O)NC(=O)[C@H](CC(N)=O)NC(=O)CNC(=O)[C@H](CC(C)C)NC(=O)[C@H](CO)NC(=O)[C@H](CCC(N)=O)NC(=O)[C@@H]1CCC(=O)N1)C(C)C)C(N)=O [CAS_31362-50-2] ([pGlu]QSLGNQWRVGHFM-NH2)
pKi [1]: 5.15 | pKi [2]: 5.49 | pKi (Neuromedin-B receptor): < 5.00

CSCC[C@H](NC(=O)[C@H](CC(C)C)NC(=O)[C@H](Cc1c[nH]cn1)NC(=O)CNC(=O)[C@@H](NC(=O)[C@H](C)NC(=O)[C@H](Cc1c[nH]c2ccccc12)NC(=O)[C@H](Cc1c[nH]cn1)NC(=O)[C@H](CC(N)=O)NC(=O)CNC(=O)[C@H](CCCN=C(N)N)NC(=O)[C@@H]1CCCN1C(=O)[C@H](Cc1ccc(O)cc1)NC(=O)[C@H](CCSC)NC(=O)[C@H](CCCCN)NC(=O)[C@@H](NC(=O)[C@H](CC(C)C)NC(=O)[C@@H](NC(=O)[C@@H](NC(=O)CNC(=O)CNC(=O)CNC(=O)[C@H](C)NC(=O)[C@@H]1CCCN1C(=O)[C@H](CC(C)C)NC(=O)[C@@H]1CCCN1C(=O)[C@@H](N)C(C)C)[C@@H](C)O)C(C)C)[C@@H](C)O)C(C)C)C(N)=O [CAS_93755-85-2]
pKi [1]: < 5.00 | pKi (Neuromedin-B receptor): 6.36

CSCC[C@H](NC(=O)[C@H](Cc1ccccc1)NC(=O)[C@H](Cc1c[nH]cn1)NC(=O)CNC(=O)[C@@H](NC(=O)[C@H](C)NC(=O)[C@H](Cc1c[nH]c2ccccc12)NC(=O)[C@H](CC(C)C)NC(=O)[C@@H]1CCC(=O)N1)[C@@H](C)O)C(N)=O [CAS_125988]
pKi [1]: 5.51 | pKi [2]: 7.51 | pKi (Neuromedin-B receptor): 6.34

CSCC[C@H](NC(=O)[C@H](Cc1ccccc1)NC(=O)[C@H](Cc1c[nH]cn1)NC(=O)CNC(=O)[C@@H](NC(=O)[C@H](C)NC(=O)[C@H](Cc1c[nH]c2ccccc12)NC(=O)[C@H](CCC(N)=O)NC(=O)[C@@H]1CCC(=O)N1)C(C)C)C(N)=O [CAS_5486808]
pKi [1]: 5.39 | pKi [2]: 8.22 | pKi (Neuromedin-B receptor): 8.15

CC(C)[C@H](NC(=O)[C@H](C)NC(=O)[C@H](Cc1c[nH]c2ccccc12)NC(=O)[C@H](Cc1cnc[nH]1)NC(=O)CCc1ccccc1)C(=O)N[C@H](C)C(=O)N[C@@H](Cc1cnc[nH]1)C(=O)N1CCC[C@@H]1CN[C@@H](Cc1ccccc1)C(N)=O [CAS_l] (Hydrocinnamoyl-HWAV[dA]H-{dProψ(CH2NH)PheNH2})
pKi [2]: 9.13 | pKi (Neuromedin-B receptor): < 5.00

CC(C)C[C@H](NC(=O)[C@H](CC(C)C)NC(=O)[C@@H](Cc1ccccc1)NC(=O)CNC(=O)[C@@H](NC(=O)[C@H](C)NC(=O)[C@H](Cc1c[nH]c2ccccc12)NC(=O)[C@H](CCC(N)=O)NC(=O)[C@@H](Cc1ccccc1)NC(=O)CNC(=O)[C@H](CC(C)C)NC(=O)[C@H](CCCN=C(N)N)NC(=O)[C@H](CCC(N)=O)NC(=O)[C@@H]1CCC(=O)N1)C(C)C)C(N)=O [DPhe6,12,Leu14-Bn]
pKi [1]: < 5.00 | pKi [2]: 6.37 | pKi (Neuromedin-B receptor): 5.64

CC(C)C[C@@H](CN[C@@H](Cc1ccc(Cl)cc1)C(N)=O)NC(=O)[C@H](Cc1c[nH]cn1)NC(=O)CNC(=O)[C@@H](NC(=O)[C@H](C)NC(=O)[C@H](Cc1c[nH]c2ccccc12)NC(=O)[C@H](CCC(N)=O)NC(=O)[C@H](N)Cc1ccccc1)C(C)C [DPhe6,Leu13,Psi(CH2NH),Cpa14-Bn(6-14)]
pKi [1]: < 5.00 | pKi [2]: 7.38 | pKi (Neuromedin-B receptor): 5.57

CC(C)C[C@H](NC(=O)[C@H](Cc1cnc[nH]1)NC(=O)CNC(=O)[C@@H](NC(=O)[C@H](C)NC(=O)[C@H](Cc1c[nH]c2ccccc12)NC(=O)[C@H](CCC(N)=O)NC(=O)[C@@H](Cc1ccccc1)NC(=O)CNC(=O)[C@H](CC(C)C)NC(=O)[C@H](CCCN=C(N)N)NC(=O)[C@H](CCC(N)=O)NC(=O)[C@@H]1CCC(=O)N1)C(C)C)C(N)=O [DPhe6-Bn(1-13)NH2]
pKi [1]: < 5.00 | pKi [2]: 6.35 | pKi (Neuromedin-B receptor): < 5.00

CC(C)C[C@H](NC(=O)[C@H](Cc1cnc[nH]1)NC(=O)CNC(=O)[C@@H](NC(=O)[C@H](C)NC(=O)[C@H](Cc1c[nH]c2ccccc12)NC(=O)[C@H](CCC(N)=O)NC(=O)[C@H](N)Cc1ccccc1)C(C)C)C(N)=O [DPhe6-Bn(6-13)NH2]
pKi [1]: < 5.00 | pKi [2]: 7.57 | pKi (Neuromedin-B receptor): < 5.00

CC(C)C[C@H](NC(=O)[C@H](Cc1cnc[nH]1)NC(=O)CNC(=O)[C@@H](NC(=O)[C@H](C)NC(=O)[C@H](Cc1c[nH]c2ccccc12)NC(=O)[C@H](CCC(N)=O)NC(=O)[C@H](N)Cc1ccccc1)C(C)C)C(=O)NN(C)C [DPhe6-Bn(6-13)NHN(ME)2]
pKi [1]: < 5.00 | pKi [2]: 5.49 | pKi (Neuromedin-B receptor): < 5.00

CCCCCCNC(=O)[C@H](CC(C)C)NC(=O)[C@H](Cc1cnc[nH]1)NC(=O)CNC(=O)[C@@H](NC(=O)[C@H](C)NC(=O)[C@H](Cc1c[nH]c2ccccc12)NC(=O)[C@H](CCC(N)=O)NC(=O)[C@H](N)Cc1ccccc1)C(C)C [DPhe6-Bn(6-13)hexylamide]
pKi [1]: 5.49 | pKi [2]: 7.00 | pKi (Neuromedin-B receptor): < 5.00

CC(C)C[C@H](NC(=O)[C@H](Cc1cnc[nH]1)NC(=O)CNC(=O)[C@@H](NC(=O)[C@H](C)NC(=O)[C@H](Cc1c[nH]c2ccccc12)NC(=O)[C@H](CCC(N)=O)NC(=O)[C@H](N)Cc1ccccc1)C(C)C)C(=O)NN [DPhe6-Bn(6-13)hydrazide]
pKi [1]: < 5.00 | pKi [2]: 5.92 | pKi (Neuromedin-B receptor): < 5.00

COC(=O)[C@H](CC(C)C)NC(=O)[C@H](Cc1cnc[nH]1)NC(=O)CNC(=O)[C@@H](NC(=O)[C@H](C)NC(=O)[C@H](Cc1c[nH]c2ccccc12)NC(=O)[C@H](CCC(N)=O)NC(=O)[C@H](N)Cc1ccccc1)C(C)C [DPhe6-Bn(6-13)methylester]
pKi [1]: 5.28 | pKi [2]: 8.00 | pKi (Neuromedin-B receptor): 5.11

CCCNC(=O)[C@H](CC(C)C)NC(=O)[C@H](Cc1cnc[nH]1)NC(=O)CNC(=O)[C@@H](NC(=O)[C@H](C)NC(=O)[C@H](Cc1c[nH]c2ccccc12)NC(=O)[C@H](CCC(N)=O)NC(=O)[C@H](N)Cc1ccccc1)C(C)C [DPhe6-Bn(6-13)propylamide]
pKi [1]: 5.72 | pKi [2]: 8.22 | pKi (Neuromedin-B receptor): 5.34

CSCC[C@H](NC(=O)[C@H](CC(C)C)NC(=O)[C@H](Cc1cnc[nH]1)NC(=O)CNC(=O)[C@@H](NC(=O)[C@H](C)NC(=O)[C@H](Cc1c[nH]c2ccccc12)NC(=O)[C@H](CCC(N)=O)NC(=O)[C@H](N)Cc1ccccc1)C(C)C)C(N)=O [DPhe6-Bn[6-14)]
pKi [1]: < 5.00 | pKi [2]: 8.70 | pKi (Neuromedin-B receptor): 7.85

CCCCNC(=O)[C@H](CC(C)C)NC(=O)[C@H](Cc1cnc[nH]1)NC(=O)[C@@H](C)NC(=O)[C@@H](NC(=O)[C@H](C)NC(=O)[C@H](Cc1c[nH]c2ccccc12)NC(=O)[C@H](CCC(N)=O)NC(=O)[C@H](N)Cc1ccc(O)cc1)C(C)C [DTyr6,DAla11-Bn(6-13)butylamide]
pKi [1]: 5.28 | pKi [2]: 8.22 | pKi (Neuromedin-B receptor): 5.64

CSCC[C@H](NC(=O)[C@H](CC(C)C)NC(=O)[C@@H](Cc1ccccc1)NC(=O)CNC(=O)[C@@H](NC(=O)[C@H](C)NC(=O)[C@H](Cc1c[nH]c2ccccc12)NC(=O)[C@H](CCC(N)=O)NC(=O)[C@H](CC(N)=O)NC(=O)CNC(=O)[C@H](CC(C)C)NC(=O)[C@H](CCCN=C(N)N)NC(=O)[C@H](CCC(N)=O)NC(=O)[C@@H]1CCC(=O)N1)C(C)C)C(N)=O [Dphe12-Bn]
pKi [1]: < 5.00 | pKi [2]: < 5.00 | pKi (Neuromedin-B receptor): 5.72

CSCC[C@H](NC(=O)[C@H](CC(C)C)NC(=O)[C@H](Cc1cnc[nH]1)NC(=O)CNC(=O)[C@@H](NC(=O)[C@H](C)NC(=O)[C@H](Cc1c[nH]c2ccccc12)NC(=O)[C@H](Cc1cnc[nH]1)NC(=O)[C@H](CC(N)=O)NC(=O)CN)C(C)C)C(N)=O [GRP-10,frog]
pKi [1]: < 5.00 | pKi [2]: 6.89 | pKi (Neuromedin-B receptor): < 5.00
